Results from paper PMC7655571, “Acetylcholinesterase inhibition in electric eel and human donor blood: an in vitro approach to investigate interspecies differences and human variability in toxicodynamics” (Archives of Toxicology, 2020).
“Also recorded” adds a separate entry of the source. Read-outs that look alike come from different tables or passages of the source.

Assays:
electric eel AChE = settings: cited from earlier work
[1] = molecular target: T1, Electrophorus electricus AChE (Electrophorus electricus, UniProt O42275); experiment: AChE inhibition, electric eel enzyme (Ellman method); type: biochemical; settings: for AChE inhibition (in words), electric eel: concentration–response curves
T1 construct: purchased Sigma-Aldrich C2888
T1 sequence (O42275 24-633): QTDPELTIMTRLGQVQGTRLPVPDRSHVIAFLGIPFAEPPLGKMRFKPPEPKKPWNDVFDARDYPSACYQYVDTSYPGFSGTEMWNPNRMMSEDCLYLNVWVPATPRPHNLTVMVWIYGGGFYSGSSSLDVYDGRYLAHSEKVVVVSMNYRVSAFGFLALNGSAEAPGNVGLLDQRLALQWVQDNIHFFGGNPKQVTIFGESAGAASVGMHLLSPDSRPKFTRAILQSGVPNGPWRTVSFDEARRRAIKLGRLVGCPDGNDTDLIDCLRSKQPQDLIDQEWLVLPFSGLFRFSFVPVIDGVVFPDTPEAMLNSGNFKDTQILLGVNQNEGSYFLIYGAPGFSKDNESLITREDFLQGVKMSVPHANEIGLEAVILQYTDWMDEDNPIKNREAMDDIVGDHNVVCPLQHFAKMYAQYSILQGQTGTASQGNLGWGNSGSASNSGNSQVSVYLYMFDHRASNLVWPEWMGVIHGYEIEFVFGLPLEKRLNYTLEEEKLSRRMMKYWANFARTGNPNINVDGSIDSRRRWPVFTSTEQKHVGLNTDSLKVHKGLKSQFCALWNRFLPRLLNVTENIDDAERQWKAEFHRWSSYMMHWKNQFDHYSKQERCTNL
Experimental: (§1) A 1.3 mM DTNB buffer and a 6 mM acetylthiocholine buffer were prepared in the 50 mM sodium phosphate buffer, a 3 mM ethopropazine buffer was prepared in sterile water and all were stored in aliquots at − 20 °C. A 600 µM ethopropazine buffer was prepared just before use in sodium phosphate buffer.
(§2) Stock solutions were diluted in methanol to create a dosing series and also stored at − 20 °C. These series were 100× diluted in sodium phosphate buffer to get 1% methanol solutions, resulting in a final concentration of 0.1% methanol in the wells.
AChE from Electrophorus electricus (electric eel) and freshly drawn (maximum one-day-old), venous EDTA whole blood samples from healthy human donors were used. […] Following incubation for 30 min at room temperature, electric eel AChE was used directly in the enzyme activity assay (see “Enzyme activity assay”). For human blood AChE, 50 µL of the blood was added to a new 48-wells plate and 950 µL Triton buffer was added to these wells (20× dilution).
Briefly, 20 µL of electric eel AChE or 20 µL of Triton-diluted blood (either exposed or unexposed) and 20 µL ethopropazine were added to 460 µL of DTNB buffer in a 48-wells plate. […] Blank wells contained only DTNB buffer and unexposed enzyme/blood to correct for any background absorbance. To these wells, 100 µL sodium phosphate buffer was added instead of acetylthiocholine after incubation. The final concentration of electric eel AChE was 4 mU/well.
All in vitro data were analysed in GraphPad Prism (version 8.4) and are expressed as mean ± standard deviation (SD). For data analysis, vehicle control (0.1% methanol) was set at 100% for both human and electric eel AChE. For human blood, the technical replicates were averaged to perform statistical tests. […] The electric eel AChE data consisted of 3 technical replicates per experiment and 3–4 independent biological replicates.

human blood AChE = molecular target: T2, human blood AChE (Homo sapiens, UniProt P22303); experiment: AChE inhibition in human donor whole blood (Ellman method); type: biochemical; settings: for AChE inhibition (in words), human blood: concentration–response curves; for Coefficient of variation (CV) C1 Human / Coefficient of variation (CV) C2 Human / Coefficient of variation (CV) C3 Human / Coefficient of variation (CV) C4 Human / Coefficient of variation (CV) C5 Human / Coefficient of variation (CV) C6 Human: human variability in AChE inhibition; for Coefficient of variation (CV) C1 Human: concentration level C1 (Table S2); for Coefficient of variation (CV) C2 Human: concentration level C2 (Table S2); for Coefficient of variation (CV) C3 Human: concentration level C3 (Table S2); for Coefficient of variation (CV) C4 Human: concentration level C4 (Table S2); for Coefficient of variation (CV) C5 Human: concentration level C5 (Table S2); for Coefficient of variation (CV) C6 Human: highest concentration C6 (Table S2); for Human uncertainty factor (UF) UF97.5: interindividual differences, concentration closest to the IC20, 95% CI in brackets
T2 construct: 90 µL undiluted blood in a 48-wells plate; from tissue; host or cells: venous EDTA whole blood from healthy human donors, lysed and diluted in Triton X-100 buffer
T2 sequence (P22303 32-617 isoform P22303-2 limits assumed): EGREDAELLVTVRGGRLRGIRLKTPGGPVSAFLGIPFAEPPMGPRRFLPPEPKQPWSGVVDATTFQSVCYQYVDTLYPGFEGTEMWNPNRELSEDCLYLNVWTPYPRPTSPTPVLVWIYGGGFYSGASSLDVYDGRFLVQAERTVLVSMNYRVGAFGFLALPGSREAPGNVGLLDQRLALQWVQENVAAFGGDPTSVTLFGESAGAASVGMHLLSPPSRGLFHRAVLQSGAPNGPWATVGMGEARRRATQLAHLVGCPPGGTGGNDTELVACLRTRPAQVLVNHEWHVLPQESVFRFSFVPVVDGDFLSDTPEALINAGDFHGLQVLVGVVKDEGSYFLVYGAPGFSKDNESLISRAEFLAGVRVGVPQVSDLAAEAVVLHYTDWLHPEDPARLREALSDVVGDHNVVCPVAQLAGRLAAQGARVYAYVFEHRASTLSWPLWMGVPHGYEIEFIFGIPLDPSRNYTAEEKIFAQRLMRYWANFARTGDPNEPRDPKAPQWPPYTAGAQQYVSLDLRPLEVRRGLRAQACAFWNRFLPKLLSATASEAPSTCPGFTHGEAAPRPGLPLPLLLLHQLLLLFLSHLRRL
Experimental: as §1, §2
AChE from Electrophorus electricus (electric eel) and freshly drawn (maximum one-day-old), venous EDTA whole blood samples from healthy human donors were used. […] For human blood AChE, 50 µL of the blood was added to a new 48-wells plate and 950 µL Triton buffer was added to these wells (20× dilution).
Briefly, 20 µL of electric eel AChE or 20 µL of Triton-diluted blood (either exposed or unexposed) and 20 µL ethopropazine were added to 460 µL of DTNB buffer in a 48-wells plate. […] Blank wells contained only DTNB buffer and unexposed enzyme/blood to correct for any background absorbance. To these wells, 100 µL sodium phosphate buffer was added instead of acetylthiocholine after incubation.
Unexposed, diluted blood (100 µL) was added to a 96-wells plate and 100 µL transformation agent (20 mg potassium ferricyanide, 5 mg potassium cyanide, 100 mg sodium bicarbonate and 50 µL Triton X-100 in 100 mL water) was added. […] Blank wells contained transformation reagent and buffer to correct for any background absorbance.
All in vitro data were analysed in GraphPad Prism (version 8.4) and are expressed as mean ± standard deviation (SD). For data analysis, vehicle control (0.1% methanol) was set at 100% for both human and electric eel AChE. For human blood, the technical replicates were averaged to perform statistical tests. Unpaired t tests were used to test for differences between men and women and a one-way ANOVA followed by a post-hoc Tukey test was used to compare data between different age groups (group 1: ≥ 60 years; group 2: 31–60 years; group 3: ≤ 30 years).

[2] = molecular target: human AChE (recombinant enzyme); settings: source: recombinant enzyme; ref Li et al. ([2019]); cited from earlier work
[3] = measured or estimated in plasma following human exposure, cited from earlier work
human AChE (neocortex) = settings: source: neocortex; ref Jackisch et al. [2009]; cited from earlier work
[4] = 30 min exposure, room temperature
[5] = 30 min exposure, room temperature, 3–4 independent experiments, read-out: IC50 Electric eel
[6] = IC50 Human, whole blood, average of 20 donors

## CCOP(=O)(OCC)Oc1cc(C)nc(C(C)C)n1 [DZO, diazinon-oxon]
Electric eel AChE; ref Čolović et al. ([2011])
  IC50: 0.05 µM
[1]; [4]
  IC20: 0.41 µM
[1]; [5]
  IC50: 1.03 µM
[1]
  AChE inhibition (in words), electric eel: show inhibition of AChE
Human blood AChE
  AChE inhibition (in words), human blood: show inhibition of AChE
  Coefficient of variation (CV) C1 Human: 5.9%
  Coefficient of variation (CV) C2 Human: 5.7%
  Coefficient of variation (CV) C3 Human: 6.8%
  Coefficient of variation (CV) C4 Human: 6.1%
  Coefficient of variation (CV) C5 Human: 8.5%
  Coefficient of variation (CV) C6 Human: 25%
  Human uncertainty factor (UF) UF97.5: 1.4 [1.2–1.6]
Human blood AChE; donor 1, read-out: IC20 Value
  IC20: 0.5 µM
Human blood AChE; donor 1, read-out: IC50 Value
  IC50: 1.5 µM
Human blood AChE; donor 2, read-out: IC20 Value
  IC20: 0.7 µM
Human blood AChE; donor 2, read-out: IC50 Value
  IC50: 1.7 µM
Human blood AChE; donor 3, read-out: IC20 Value
  IC20: 1 µM
Human blood AChE; donor 3, read-out: IC50 Value
  IC50: 2.3 µM
Human blood AChE; donor 4, read-out: IC20 Value
  IC20: 0.4 µM
Human blood AChE; donor 4, read-out: IC50 Value
  IC50: 1.5 µM
Human blood AChE; donor 5, read-out: IC20 Value
  IC20: 0.7 µM
Human blood AChE; donor 5, read-out: IC50 Value
  IC50: 1.6 µM
Human blood AChE; donor 6, read-out: IC20 Value
  IC20: 1.4 µM
Human blood AChE; donor 6, read-out: IC50 Value
  IC50: 2.6 µM
Human blood AChE; donor 7, read-out: IC20 Value
  IC20: 1.2 µM
Human blood AChE; donor 7, read-out: IC50 Value
  IC50: 2.4 µM
Human blood AChE; donor 8, read-out: IC20 Value
  IC20: 1.2 µM
Human blood AChE; donor 8, read-out: IC50 Value
  IC50: 2.2 µM
Human blood AChE; donor 9, read-out: IC20 Value
  IC20: 1.1 µM
Human blood AChE; donor 9, read-out: IC50 Value
  IC50: 2.1 µM
Human blood AChE; donor 10, read-out: IC20 Value
  IC20: 1.9 µM
Human blood AChE; donor 10, read-out: IC50 Value
  IC50: 4.5 µM
Human blood AChE; donor 11, read-out: IC20 Value
  IC20: 1.7 µM
Human blood AChE; donor 11, read-out: IC50 Value
  IC50: 2.9 µM
Human blood AChE; donor 12, read-out: IC20 Value
  IC20: 1.9 µM
Human blood AChE; donor 12, read-out: IC50 Value
  IC50: 3.7 µM
Human blood AChE; donor 13, read-out: IC20 Value
  IC20: 1.1 µM
Human blood AChE; donor 14, read-out: IC20 Value
  IC20: 1.3 µM
Human blood AChE; donor 14, read-out: IC50 Value
  IC50: 2.8 µM
Human blood AChE; donor 15, read-out: IC20 Value
  IC20: 0.9 µM
Human blood AChE; donor 15, read-out: IC50 Value
  IC50: 1.9 µM
Human blood AChE; donor 16, read-out: IC20 Value
  IC20: 1.3 µM
Human blood AChE; donor 16, read-out: IC50 Value
  IC50: 3 µM
Human blood AChE; donor 17, read-out: IC20 Value
  IC20: 0.9 µM
Human blood AChE; donor 17, read-out: IC50 Value
  IC50: 2.2 µM
Human blood AChE; donor 18, read-out: IC20 Value
  IC20: 1.4 µM
Human blood AChE; donor 18, read-out: IC50 Value
  IC50: 2.9 µM
Human blood AChE; donor 19, read-out: IC20 Value
  IC20: 1.9 µM
Human blood AChE; donor 19, read-out: IC50 Value
  IC50: 3.4 µM
Human blood AChE; donor 20, read-out: IC20 Value
  IC20: 1.3 µM
Human blood AChE; donor 20, read-out: IC50 Value
  IC50: 2.7 µM
Human blood AChE; whole blood, average of 20 donors, read-out: IC20 Human
  IC20: 1.2 µM
Human blood AChE; whole blood, average of 20 donors, read-out: IC50 Human
  IC50: 2.5 µM
[2]
  IC50: 1.3 µM

## Cc1nc(N(C)C)nc(OC(=O)N(C)C)c1C [PI, pirimicarb]
[3]; ref Hoffmann et al. ([2008])
  In vivo concentration: ≤ 300 µM
[1]; [4]
  IC20: 9.9 µM
[1]; [5]
  IC50: 61 µM
[1]
  AChE inhibition (in words), electric eel: show inhibition of AChE
Human blood AChE; [6]
  IC50: 20 µM
Human blood AChE; IC50 Value, donor 1
  IC50: 19 µM
Human blood AChE; IC50 Value, donor 2
  IC50: 19 µM
Human blood AChE; IC50 Value, donor 3
  IC50: 17 µM
Human blood AChE; IC50 Value, donor 4
  IC50: 22 µM
Human blood AChE; IC50 Value, donor 5
  IC50: 17 µM
Human blood AChE; IC50 Value, donor 6
  IC50: 24 µM
Human blood AChE; IC50 Value, donor 7
  IC50: 23 µM
Human blood AChE; IC50 Value, donor 8
  IC50: 26 µM
Human blood AChE; IC50 Value, donor 9
  IC50: 15 µM
Human blood AChE; IC50 Value, donor 11
  IC50: 29 µM
Human blood AChE; IC50 Value, donor 12
  IC50: 18 µM
Human blood AChE; IC50 Value, donor 13
  IC50: 19 µM
Human blood AChE; IC50 Value, donor 14
  IC50: 15 µM
Human blood AChE; IC50 Value, donor 15
  IC50: 16 µM
Human blood AChE; IC50 Value, donor 16
  IC50: 14 µM
Human blood AChE; IC50 Value, donor 17
  IC50: 16 µM
Human blood AChE; IC50 Value, donor 18
  IC50: 22 µM
Human blood AChE; IC50 Value, donor 19
  IC50: 28 µM
Human blood AChE; IC50 Value, donor 20
  IC50: 19 µM
Human blood AChE
  AChE inhibition (in words), human blood: show inhibition of AChE
  Coefficient of variation (CV) C1 Human: 5.8%
  Coefficient of variation (CV) C2 Human: 6.0%
  Coefficient of variation (CV) C3 Human: 6.9%
  Coefficient of variation (CV) C4 Human: 5.7%
  Coefficient of variation (CV) C5 Human: 5.8%
  Coefficient of variation (CV) C6 Human: 6.6%
  Human uncertainty factor (UF) UF97.5: 1.8 [1.5–2.1]
Human blood AChE; read-out: IC20 Human, whole blood, average of 20 donors
  IC20: 7.1 µM
Human blood AChE; read-out: IC20 Value, donor 1
  IC20: 8.6 µM
Human blood AChE; read-out: IC20 Value, donor 2
  IC20: 6.4 µM
Human blood AChE; read-out: IC20 Value, donor 3
  IC20: 5.8 µM
Human blood AChE; read-out: IC20 Value, donor 4
  IC20: 8 µM
Human blood AChE; read-out: IC20 Value, donor 5
  IC20: 5.9 µM
Human blood AChE; read-out: IC20 Value, donor 6
  IC20: 9.3 µM
Human blood AChE; read-out: IC20 Value, donor 7
  IC20: 6.4 µM
Human blood AChE; read-out: IC20 Value, donor 8
  IC20: 8.1 µM
Human blood AChE; read-out: IC20 Value, donor 9
  IC20: 4.2 µM
Human blood AChE; read-out: IC20 Value, donor 10
  IC20: 5.3 µM
Human blood AChE; read-out: IC20 Value, donor 11
  IC20: 7 µM
Human blood AChE; read-out: IC20 Value, donor 12
  IC20: 8.8 µM
Human blood AChE; read-out: IC20 Value, donor 13
  IC20: 4.7 µM
Human blood AChE; read-out: IC20 Value, donor 14
  IC20: 6.1 µM
Human blood AChE; read-out: IC20 Value, donor 15
  IC20: 6 µM
Human blood AChE; read-out: IC20 Value, donor 16
  IC20: 5.9 µM
Human blood AChE; read-out: IC20 Value, donor 17
  IC20: 4.8 µM
Human blood AChE; read-out: IC20 Value, donor 18
  IC20: 9.2 µM
Human blood AChE; read-out: IC20 Value, donor 19
  IC20: 18 µM
Human blood AChE; read-out: IC20 Value, donor 20
  IC20: 3.4 µM

## COP(=S)(OC)SCN1C(=O)c2ccccc2C1=O [PM, phosmet]
[3]; ref Santori et al. ([2020])
  In vivo concentration: ≤ 50 µM
[1]
  IC50: > 1.4 µM
  AChE inhibition (in words), electric eel: do not show any AChE inhibition; also recorded: did not inhibit AChE
[1]; listed as phosmet
  AChE inhibition (in words), electric eel: did not show inhibition
Human blood AChE; [6]
  IC50: > 30 µM
Human blood AChE
  AChE inhibition (in words), human blood: do not inhibit AChE activity; also recorded: do not show any AChE inhibition; also recorded: did not inhibit AChE
Human blood AChE; listed as phosmet
  AChE inhibition (in words), human blood: did not show inhibition
[2]
  IC50 Value Human: Inactive

## CCN(C)C(=O)Oc1cccc([C@H](C)N(C)C)c1 [RI, rivastigmine]
[3]; ref Hossain et al. ([2002])
  In vivo concentration: […]
[3]; ref Lefèvre et al. ([2016])
  In vivo concentration: […]
Electric eel AChE; ref Imramovsky et al. [2012]
  IC50: […]
Electric eel AChE; ref Kratky et al. [2018]
  IC50: […]
[1]; [4]
  IC20: 16 µM
[1]
  AChE inhibition (in words), electric eel: show inhibition of AChE
Human AChE (neocortex)
  IC50: […]
